Measured values: patent US20120129869A1, “PHOSPHORYLATION AND MUTATIONS OF ANAPLASTIC LYMPHOMA KINASE AS A DIAGNOSTIC AND THERAPEUTIC TARGET IN LUNG CANCER” (Academia Sinica, priority 2010, published 2012)

Tests used:
phosphorylated-Y1604 ALK [1] = assay: IHC staining of phosphorylated-Y1604 ALK in xenograft tumor sections; format: in vivo, nude mice; conditions: H694R and E1384K xenograft tumor sections, versus DMSO control
Protocol: Human lung cancer tissue arrays containing 37 normal lung and 263 lung cancer sections from Pantomics (Luc961, Luc962, Luc1501, Luc1502 and Luc1503) were deparaffinized and the frozen tumor sections from the xenograft nude mice were fixed in 3% formaldehyde solution. All sections were treated in 3% H2O2 buffer for 30 minutes to inactivate the endogenous peroxidase activities, and then treated with 0.01M sodium citrate buffer for antigen retrieval. After blocking with 10% normal goat serum, these sections were reacted with specific antibodies at 4° C. for overnight. Subsequently, these sections were incubated with Super Picture HRP polymer conjugate secondary antibody (Zymed Laboratories), and then stained with DAB chromagen (Zymed Laboratories). These sections were also stained with Hematoxylin (DAKO).
(§1) Animal protocol was approved by the Institutional Animal Safety Committee. A total of 1×10^6 ALK-wild type or mutants expressed H1299 transfectants were mixed with matrigel (BD) and then subcutaneously injected into the right flank of four-week-old BALB/c NU mice. For WHI-P154 treatments, the nude mice were randomly divided into two groups when the mean tumor volume reached 20-50 mm^3. DMSO or WHI-P154 (1 mg/kg/day) was intravenously injected daily. The tumor volumes were measured weekly and calculated according to the formula: volume=length×width^2×0.52.

phosphorylated-Y1604 ALK [2] = assay: Western blotting of phosphorylated-Y1604 ALK expression in H1299 transfectants; format: cell-based; conditions: both wild type and mutated ALK transfectants
Description: For Western blotting analysis, the membranes were probed with specific antibodies against HA (Covance), phospho-tyrosine (4G10; Upstate Biotechnology), STAT3 (sc-482; Santa Cruz) and α-tubulin (DM1A; NeoMarkers). The phospho-ALK (Tyr1604), phospho-Akt ([…]), phospho-STAT3 (Tyr705), phospho-ERK (Thr202/Tyr204), Akt and ERK antibodies were purchased from Cell Signaling. For IHC staining assay, the tissue sections were stained with specific antibodies against phospho-ALK (pY1604; Epitomics), ALK (4204-1; Epitomics), phospho-STAT3 (Tyr705, D3A7; Cell Signaling) and phospho-Akt (Ser473, 736E11; Cell Signaling). The ALK inhibitor WHI-P154 was purchased from Calbiochem.
Cells were lysed in RIPA buffer (200 mM Tris, 150 mM NaCl, 1 mM EDTA, 1% NP40, 1 mM PMSF, 1 mM DTT) with addition of 1× phosphatase inhibitor cocktail set II from Calbiochem and 1× cocktails of protease inhibitor from Roche. The protein concentration was measured by BCA protein assay kit (Pierce Chemical). The equal amounts of cell lysates were subjected to SDS-PAGE, transferred to NC membranes, and then probed with specific antibody for protein detection. For co-immunoprecipitation assay, the equal amounts of cell lysates were firstly incubated with anti-HA antibody for one hour and subsequently reacted with protein A/G for overnight. […]

H1299 cells [3] = assay: Boyden chamber cell migration assay; format: cell-based; conditions: compared with DMSO control
Protocol: The cell migration capability was examined by Boyden chamber assay. Briefly, a total of 2×10^4 H1299 or NIH3T3 transfectants were inoculated into the cell migration insert (BD Biosciences) containing 350 μl DMEM medium alone, and the insert was placed into the well containing 750 μl complete DMEM medium in 24-well plate. After 24 hours incubation, the migrated cells were fixed with 100% methanol and stained by Giemsa's solution (Merck). The numbers of migrated cells were counted by using Image-pro plus analysis program.

H1299 cells [4] = assay: Anchorage-independent growth (soft agar) assay; format: cell-based; conditions: compared with DMSO control
Protocol: A total of 2×10^4 H1299 or NIH3T3 transfectants were mixed in a final 0.3% agarose and plated onto the 60-mm plate containing 0.5% agarose. These cells were further cultured in 5% CO2 incubator at 37° C. for one month. The plates were dehydrated at room temperature and then stained with 0.3% crystal violet for visualizing colonies. The colony numbers were counted by using Image-pro plus analysis program.

[5] = test system: GFP-labeled H1299 transfectants of H694R and E1384K ALK; assay: In vivo metastasis assay (tail vein injected lung metastasis model); set-up: species or system nude mice; conditions: 1 mg/kg/day intravenously
Protocol: In order to examine the in vivo metastatic capability, ALK wild type or mutations expressed H1299 transfectants were infected with GFP-lentivirus to generate the GFP fluorescence-labeled cells. A total of 2×10^6 cells were injected into nude mice through tail vein for measuring lung metastasis. For investigation of the tumor suppressive effects using ALK inhibitor, the nude mice were intravenously injected daily with WHI-P154 (1 mg/kg/day) after cell inoculation for 14 days. The survival rate was recorded daily and scarified the rest mice after 105 days. The pulmonary metastasis of GFP-labeled H1299 transfectants were visualized by fluorescence stereomicroscope.

[6] = test system: H694R and E1384K ALK H1299 transfectants xenograft; assay: In vivo xenograft tumor formation assay; set-up: species or system BALB/c NU mice; conditions: ALK mutations-bearing mice, 1 mg/kg/day intravenously, versus DMSO control
Protocol: as §1

[7] = test system: H1299 transfectants of wild type, H694R and E1384K ALKs; assay: WST-1 cell growth, wild type and mutated ALK transfectants together; format: cell-based; conditions: both wild type and mutated ALK transfectants
Description: The full-length cDNA of ALK-wild type was inserted into pCDNA3.0 vector by restriction sites Hind III and Not I. All ALK mutations were generated from the template of pCDNA3.0-ALK-wild type full-length construct using site-directed mutagenesis. H1299 and NIH3T3 cells were maintained in Dulbecco's Modified Eagle Medium (DMEM) medium supplemented with 10% Fetal Bovine Serum (FBS) and streptomycin. The H1299 and NIH3T3 cells were transfected with the expression constructs by Lipofectamine 2000 (Invitrogen) and further selected by G418 to establish mixtures of ALK-expressed transfectants.
For analysis of cell growth, a total of 1×10^3 cells/well was seeded in 96-well plate. After different culturing time, 10 μl/well WST-1 reagent (Roche Diagnostics) was added for reaction at 37° C. for 50 minutes. The absorbance at 450 nm was measured.

COc1cc2ncnc(Nc3ccc(O)c(Br)c3)c2cc1OC [WHI-P154]
expression of phosphorylated-Y1604 ALK in tumor sections (phosphorylated-Y1604 ALK [1]): significant lower expression of phosphorylated-Y1604 ALK
inhibition of expression of phosphorylated-Y1604 ALK (phosphorylated-Y1604 ALK [2]): dose-dependent inhibition
inhibition of cell migration (H1299 cells [3]): profound inhibition
inhibition of soft agar growth (H1299 cells [4]): profound inhibition
survival ([5]; mice with H694R and E1384K mutations): survive as long as control mice
lung metastasis ([5]; mutation-bearing mice): significantly suppresses lung metastasis
tumor growth [6]: significant reduction of tumor growth
inhibition of cell growth [7]: dose-dependent inhibition
